Read-outs that look alike come from different tables or passages of the source.
What was measured:
[1] = target: HDAC1 (Homo sapiens, UniProt Q13547); assay: HDAC biochemical activity measurement (fluorescent substrate deacetylation);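 note: fluorogenic acetyl-lysine substrate (20 µM) deacetylated by HDAC1, then developer releases fluorophore read at 360 nm excitation and 460 nm emission, inhibitor incubated 30 min at 37 °C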
[2] = target: T1, HDAC8 (Homo sapiens, UniProt Q9BY41); assay: as above; conditions: 37° C. 30 minutes
T1 sequence (Q9BY41 1-377): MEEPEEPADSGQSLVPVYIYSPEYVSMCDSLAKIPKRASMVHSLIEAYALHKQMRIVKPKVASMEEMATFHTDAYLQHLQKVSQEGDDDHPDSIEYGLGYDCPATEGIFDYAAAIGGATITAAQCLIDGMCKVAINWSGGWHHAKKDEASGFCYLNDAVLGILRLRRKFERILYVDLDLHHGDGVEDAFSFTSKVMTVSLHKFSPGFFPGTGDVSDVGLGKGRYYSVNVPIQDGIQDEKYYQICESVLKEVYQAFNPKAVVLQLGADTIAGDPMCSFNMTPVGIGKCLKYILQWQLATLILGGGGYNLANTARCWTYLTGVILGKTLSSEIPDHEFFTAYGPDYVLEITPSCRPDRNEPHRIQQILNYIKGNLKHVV

[3] = target: HDAC3 (Homo sapiens, UniProt O15379); assay: as above;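 note: fluorogenic acetyl-lysine substrate (20 µM) deacetylated by HDAC3, then developer added for 15 min at room temperature, release of fluorophore read at excitation 360 nm, emission 460 nm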
HDAC3, sequence (O15379 whole entry, species assumed): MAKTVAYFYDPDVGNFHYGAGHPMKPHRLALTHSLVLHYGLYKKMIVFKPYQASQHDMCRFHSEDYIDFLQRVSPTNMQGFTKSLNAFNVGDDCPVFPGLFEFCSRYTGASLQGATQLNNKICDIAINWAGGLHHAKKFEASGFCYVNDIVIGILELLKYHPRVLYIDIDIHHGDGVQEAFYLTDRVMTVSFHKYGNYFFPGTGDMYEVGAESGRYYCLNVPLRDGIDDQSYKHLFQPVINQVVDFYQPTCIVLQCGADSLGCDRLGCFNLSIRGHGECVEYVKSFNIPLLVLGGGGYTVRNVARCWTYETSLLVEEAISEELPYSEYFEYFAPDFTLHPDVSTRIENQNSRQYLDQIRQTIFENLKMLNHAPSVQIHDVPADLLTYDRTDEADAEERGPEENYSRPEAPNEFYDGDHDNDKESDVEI
HDAC3, sequence (Q9Y618 395-489 partner limits assumed, species assumed): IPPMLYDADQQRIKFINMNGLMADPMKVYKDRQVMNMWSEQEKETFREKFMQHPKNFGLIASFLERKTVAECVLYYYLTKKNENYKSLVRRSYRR

[4] = tested on: Bel-7402 (human hepatoma cells); assay: MTT cancer cell growth inhibition; type: cell-based; conditions: Homo sapiens, Bel-7402, 72 h, MTT, 72 hours incubation, Bel-7402 cells; read-out: GI50 Bel-7402
Summary of the method: (§1)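 Cells grown in DMEM or RPMI 1640 with 10% FBS were seeded at 1500/well and left overnight at 37° C., 5% CO2. Compounds at final 10^−5 to 10^−10 M were added in triplicate for 72 h. MTT was then added for 4 h, formazan dissolved in DMSO, and absorbance read at 570 nm to derive GI50.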

[5] = tested on: MOLT-4 (human acute lymphoblastic leukemia cells); assay: MTT cancer cell growth inhibition; type: cell-based; conditions: Homo sapiens, MOLT-4, 72 h, MTT
Summary of the method: as §1

[6] = tested on: DU145 (human prostate cancer cells); assay: MTT cancer cell growth inhibition; type: cell-based; conditions: Homo sapiens, DU-145, 72 h, MTT
Summary of the method: as §1

[7] = tested on: A549 (human lung cancer cells); assay: MTT cancer cell growth inhibition; type: cell-based; conditions: Homo sapiens, A549, 72 h, MTT
Summary of the method: as §1

[8] = tested on: MCF-7 (human breast cancer cells); assay: MTT cancer cell growth inhibition; type: cell-based; conditions: Homo sapiens, MCF7, 72 h
Summary of the method: as §1

[9] = tested on: U937 (human leukemia cells); assay: MTT cancer cell growth inhibition; type: cell-based; conditions: Homo sapiens, U-937, 72 h, MTT
Summary of the method: as §1

[10] = tested on: PANC-1 (Pac-1, human pancreatic cancer cells); assay: MTT cancer cell growth inhibition; type: cell-based; conditions: Homo sapiens, PANC-1, 72 h, MTT
Summary of the method: as §1

[11] = tested on: BGC-823 (human gastric cancer cells); assay: MTT cancer cell growth inhibition; type: cell-based; conditions: Homo sapiens, BGC-823, 72 h, MTT
Summary of the method: as §1

[12] = tested on: lncap (prostate cancer cells); assay: MTT cancer cell growth inhibition; type: cell-based; conditions: Homo sapiens, LNCaP, 72 h, MTT
Summary of the method: as §1

[13] = tested on: Huh-7 (human hepatoma cells); assay: MTT cancer cell growth inhibition; type: cell-based; conditions: Homo sapiens, Huh-7, 72 h, MTT, 72 hours incubation, Huh-7 cells; read-out: GI50 Huh-7
Summary of the method: as §1

[14] = HDAC1, 37° C. 30 minutes, read-out: IC50 HDAC1
[15] = Table 2, read-out: IC50 HDAC1, a (compounds of the present invention)
[16] = read-out: IC50 HDAC3, HDAC3, 37° C. 30 minutes
[17] = 72 hours incubation, read-out: GI50 Mol
[18] = 72 hours, present invention, read-out: GI50 Molt-4, a
[19] = 72 hours incubation, read-out: GI50 Du1
[20] = 72 hours, present invention, read-out: GI50 Du145, a
[21] = 72 hours incubation, read-out: GI50 A54
[22] = 72 hours, present invention, read-out: GI50 A549, a
[23] = 72 hours incubation, read-out: GI50 MCF
[24] = 72 hours, present invention, read-out: GI50 MCF7, a
[25] = 72 hours, present invention, read-out: GI50 U937, a
[26] = 72 hours, present invention, read-out: GI50 PANC-1, a
[27] = 72 hours incubation, read-out: GI50 BG
[28] = 72 hours, present invention, read-out: GI50 BGC823, a
[29] = 72 hours, present invention, read-out: GI50 lncap, a
[30] = MOLT-4 cells, 72 hours incubation, read-out: GI50 Mol
[31] = DU145 cells, 72 hours incubation, read-out: GI50 Du1
[32] = A549 cells, 72 hours incubation, read-out: GI50 A54
[33] = MCF-7 cells, 72 hours incubation, read-out: GI50 MCF
[34] = U937 cells, 72 hours incubation, read-out: GI50 U93
[35] = PANC-1 cells, 72 hours incubation, read-out: GI50 PAN
[36] = BGC-823 cells, 72 hours incubation, read-out: GI50 BG
[37] = lncap cells, 72 hours incubation, read-out: GI50 lnca

HDAC1, sequence (Q13547 whole entry, species assumed): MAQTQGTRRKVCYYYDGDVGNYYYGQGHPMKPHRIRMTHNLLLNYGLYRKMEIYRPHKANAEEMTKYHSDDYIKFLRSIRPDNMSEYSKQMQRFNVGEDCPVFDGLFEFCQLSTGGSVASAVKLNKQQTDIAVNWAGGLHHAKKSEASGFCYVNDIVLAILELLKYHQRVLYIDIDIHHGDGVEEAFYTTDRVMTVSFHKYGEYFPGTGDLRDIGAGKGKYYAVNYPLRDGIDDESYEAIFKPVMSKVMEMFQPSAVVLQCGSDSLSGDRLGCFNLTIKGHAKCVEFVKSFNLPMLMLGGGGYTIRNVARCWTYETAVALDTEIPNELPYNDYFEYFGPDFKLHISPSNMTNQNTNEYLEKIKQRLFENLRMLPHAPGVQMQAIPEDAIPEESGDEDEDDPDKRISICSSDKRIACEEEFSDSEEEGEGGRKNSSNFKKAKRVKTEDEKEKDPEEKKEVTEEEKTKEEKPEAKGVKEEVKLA

| Compound | IC50 [1, 14] [nM] | IC50 [1, 15] [nM] | IC50 [2] [nM] | IC50 [3, 16] [nM] | GI50 [4] [nM] | GI50 [5, 17] [nM] | GI50 [5, 18] [nM] | GI50 [6, 19] [nM] | GI50 [6, 20] [nM] | GI50 [7, 21] [nM] | GI50 [13] [nM] | IC50 [3] [nM] | GI50 [5, 30] [nM] | GI50 [6, 31] [nM] | GI50 [7, 32] [nM] | GI50 [8, 33] [nM] | GI50 [9, 34] [nM] | GI50 [10, 35] [nM] | GI50 [11, 36] [nM] | GI50 [12, 37] [nM] | further results |
| --- | --- | --- | --- | --- | --- | --- | --- | --- | --- | --- | --- | --- | --- | --- | --- | --- | --- | --- | --- | --- | --- |
| C/C=C1\NC(=O)c2cccc(n2)CNC(=O)C[C@@H](/C=C/CCSC(C)=O)OC(=O)[C@H](C(C)C)NC1=O [Compound 7] | 87 | < 500 | 39 | 7 | 82 | 20 | 21 | 10 | 13 | 50 | 46 |  |  |  |  |  |  |  |  |  | IC50 ([1]; Table 3, read-out: IC50 HDAC1, D (non-substituent)): 87 nM; GI50 [7, 22]: 52 nM; GI50 [8, 23]: 30 nM; GI50 [8, 24]: 30 nM; GI50 [9, 25]: 8 nM; GI50 [10, 26]: 5 nM; GI50 [11, 27]: 30 nM; GI50 [11, 28]: 31 nM; GI50 [12, 29]: 3 nM |
| C/C=C1\NC(=O)c2nc(ccc2SCCC)CNC(=O)C[C@@H](/C=C/CCSC(=O)CCCCCCC)OC(=O)[C@H](CC)NC1=O [Compound 174] | 84 |  | 21 |  | 41 |  |  |  |  |  | 11 | 26 | 20 | 50 | 50 | 80 | 70 | 100 | 30 | 30 |  |
| CCCCCCCC(=O)SCC/C=C/[C@@H]1CC(=O)NCc2cccc(n2)C(=O)NC(CC)C(=O)N[C@@H](C(C)C)C(=O)O1 (stereo partly drawn) [Compound 245] | 66 | < 100 | 102 | 52 | 87 |  | 350 |  | 130 |  | 31 |  | 350 | 130 | 110 | 40 | 840 | 140 | 770 | 860 | GI50 [7, 22]: 110 nM; GI50 [8, 24]: 41 nM; GI50 [9, 25]: 840 nM; GI50 [10, 26]: 140 nM; GI50 [11, 28]: 770 nM; GI50 [12, 29]: 860 nM |
| C/C=C1\NC(=O)c2ccc(SC)c(n2)CNC(=O)C[C@@H](/C=C/CCSC(=O)CCCCCCC)OC(=O)[C@H](Cc2ccccc2)NC1=O [Compound 191] | 92 |  | 18 |  | 51 |  |  |  |  |  | 89 | 62 | 50 | 40 | 70 | 170 | 30 | 50 | 100 | 310 |  |
| C/C=C1\NC(=O)c2nc(ccc2F)CNC(=O)C[C@@H](/C=C/CCSC=O)OC(=O)[C@H](C(C)C)NC1=O [Example 51] | 46 |  | 41 |  | 72 | 20 |  | 40 |  | 40 | 29 | 51 |  |  |  |  |  |  |  |  | GI50 [8, 23]: 70 nM; GI50 ([9]; 72 hours incubation, read-out: GI50 U93): 60 nM; GI50 ([10]; 72 hours incubation, read-out: GI50 PAN): 70 nM; GI50 [11, 27]: 60 nM; GI50 ([12]; 72 hours incubation, read-out: GI50 lnca): 20 nM |
